Among the data in patent publication US8318762B2, “Pyrazolospiroketone acetyl-CoA carboxylase inhibitors” (Pfizer Inc., priority 2008, dated 2012) are IC50 values, retold here.

Where two headings read alike, the source gives them in different places.

For the assay, the target named is T1, recombinant human ACC2 (Homo sapiens, UniProt O00763).
T1 construct: a full length Cytomax clone of ACC2 was purchased from Cambridge Bioscience Limited; made in house; host or cells: CHO cells (tetracycline induction, pcDNA5 FRT TO-TOPO); purified on a Softlink Soft Release Avidin column
T1 sequence (O00763 whole entry): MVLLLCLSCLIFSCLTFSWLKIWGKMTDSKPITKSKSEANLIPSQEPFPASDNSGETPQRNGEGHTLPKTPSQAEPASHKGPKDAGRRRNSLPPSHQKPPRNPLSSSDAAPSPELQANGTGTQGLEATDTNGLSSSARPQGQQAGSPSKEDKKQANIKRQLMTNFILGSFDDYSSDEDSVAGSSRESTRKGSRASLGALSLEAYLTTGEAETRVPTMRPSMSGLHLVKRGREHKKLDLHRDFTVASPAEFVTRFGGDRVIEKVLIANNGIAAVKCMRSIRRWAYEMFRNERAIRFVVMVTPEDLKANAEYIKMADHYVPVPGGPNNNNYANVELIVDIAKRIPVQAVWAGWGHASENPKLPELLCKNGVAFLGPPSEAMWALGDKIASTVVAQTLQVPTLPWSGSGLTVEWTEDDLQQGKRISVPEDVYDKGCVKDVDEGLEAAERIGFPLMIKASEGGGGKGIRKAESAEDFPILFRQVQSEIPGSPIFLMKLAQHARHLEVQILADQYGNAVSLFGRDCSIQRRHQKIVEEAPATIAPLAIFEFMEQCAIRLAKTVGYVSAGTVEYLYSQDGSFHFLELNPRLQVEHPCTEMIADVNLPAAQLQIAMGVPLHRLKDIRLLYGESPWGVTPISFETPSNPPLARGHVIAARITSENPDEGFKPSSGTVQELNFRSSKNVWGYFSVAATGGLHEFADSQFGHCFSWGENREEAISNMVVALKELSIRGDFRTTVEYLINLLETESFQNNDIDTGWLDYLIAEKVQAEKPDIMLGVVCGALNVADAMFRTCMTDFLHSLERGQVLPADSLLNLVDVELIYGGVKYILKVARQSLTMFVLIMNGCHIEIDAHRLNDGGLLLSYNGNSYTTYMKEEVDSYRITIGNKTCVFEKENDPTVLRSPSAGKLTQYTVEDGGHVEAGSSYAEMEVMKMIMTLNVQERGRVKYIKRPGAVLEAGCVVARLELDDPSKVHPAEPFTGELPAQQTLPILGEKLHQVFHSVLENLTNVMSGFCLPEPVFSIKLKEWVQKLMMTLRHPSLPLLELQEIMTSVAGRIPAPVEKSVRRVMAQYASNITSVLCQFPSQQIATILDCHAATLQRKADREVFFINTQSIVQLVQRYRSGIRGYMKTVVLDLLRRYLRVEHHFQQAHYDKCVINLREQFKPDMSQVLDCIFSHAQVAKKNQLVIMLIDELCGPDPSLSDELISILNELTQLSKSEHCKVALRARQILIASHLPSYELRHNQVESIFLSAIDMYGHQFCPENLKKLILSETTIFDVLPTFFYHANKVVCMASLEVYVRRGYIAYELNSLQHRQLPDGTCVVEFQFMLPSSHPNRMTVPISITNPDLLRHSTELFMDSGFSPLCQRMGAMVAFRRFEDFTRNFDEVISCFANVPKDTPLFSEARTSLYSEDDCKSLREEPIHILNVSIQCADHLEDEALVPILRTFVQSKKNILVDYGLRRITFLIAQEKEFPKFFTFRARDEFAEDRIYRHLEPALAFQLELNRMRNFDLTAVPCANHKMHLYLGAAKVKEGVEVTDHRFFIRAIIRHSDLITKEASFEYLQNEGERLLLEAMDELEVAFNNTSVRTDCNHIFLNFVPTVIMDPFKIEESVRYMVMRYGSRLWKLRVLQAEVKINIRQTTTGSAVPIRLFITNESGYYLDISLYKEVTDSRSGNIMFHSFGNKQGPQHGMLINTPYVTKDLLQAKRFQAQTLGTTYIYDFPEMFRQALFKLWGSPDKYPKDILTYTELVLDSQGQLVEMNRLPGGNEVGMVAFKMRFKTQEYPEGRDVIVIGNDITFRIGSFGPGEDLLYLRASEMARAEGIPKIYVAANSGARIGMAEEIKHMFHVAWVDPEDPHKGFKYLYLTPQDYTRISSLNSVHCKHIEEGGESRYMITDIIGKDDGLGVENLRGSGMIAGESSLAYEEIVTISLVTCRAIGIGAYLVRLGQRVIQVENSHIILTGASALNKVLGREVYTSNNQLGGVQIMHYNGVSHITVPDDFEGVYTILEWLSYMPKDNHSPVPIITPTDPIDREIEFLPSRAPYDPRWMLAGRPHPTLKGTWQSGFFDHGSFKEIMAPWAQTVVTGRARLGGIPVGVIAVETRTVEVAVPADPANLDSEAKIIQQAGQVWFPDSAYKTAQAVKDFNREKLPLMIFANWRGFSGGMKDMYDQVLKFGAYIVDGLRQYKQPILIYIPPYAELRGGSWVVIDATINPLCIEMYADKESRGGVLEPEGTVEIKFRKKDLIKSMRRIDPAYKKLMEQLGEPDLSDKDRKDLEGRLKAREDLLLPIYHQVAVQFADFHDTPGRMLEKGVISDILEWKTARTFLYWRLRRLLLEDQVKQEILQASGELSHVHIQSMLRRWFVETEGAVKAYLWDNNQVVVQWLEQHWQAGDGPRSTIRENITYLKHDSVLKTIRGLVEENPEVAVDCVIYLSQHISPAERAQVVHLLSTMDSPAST
Briefly: Measurement of human ACC2 inhibition (recombinant hACC2 Transcreener ADP detection FP assay). Format: biochemical. As for the experimental part: [3] Measurement of human ACC2 inhibition. Human ACC2 inhibition was measured using purified recombinant human ACC2 (hrACC2). […] The ACC2 was expressed in CHO cells by tetracycline induction and harvested in 5 liters of DMEM/F12 with glutamine, biotin, hygromycin and blasticidin with 1 μg/mL tetracycline (Invitrogen, Carlsbad, Calif.). The conditioned medium containing ACC2 was then applied to a Softlink Soft Release Avidin column (Promega, Madison, Wis.) and eluted with 5 mM biotin. […] The purified ACC2 was dialyzed in 50 mM Tris, 200 mM NaCl, 4 mM DTT, 2 mM EDTA, and 5% glycerol. […] The final conditions for the assay were 50 mM HEPES, pH7.5, 5 mM MgCl2, 5 mM tripotassium citrate, 2 mM DTT, 0.5 mg/mL BSA, 30 μM acetyl-CoA, 50 μM ATP, and 8 mM KHCO3. Typically, a 10 μl reaction was run for 1 hour at room temperature, and 10 μl of Transcreener stop and detect buffer was added and incubated for an additional 1 hour.

[1] abbreviates: recombinant hACC2 transcreener assay, read-out: rhACC2 IC50.

What is called IC50 is the concentration at which inhibition is half-maximal.

As to `CCn1nc2c(c1C)OC1(CCN(C(=O)c3cc(C)c4nc[nH]c4c3)CC1)CC2=O` [3.005], the half-inhibitory concentration (IC50) came out at 79 nM.
On to `Cc1cc(C(=O)N2CCC3(CC2)CC(=O)c2nn(C4CCC4)cc2O3)cc2[nH]cnc12` [3.006], for which the 50% inhibitory concentration (IC50) under setting [1] came to 55 nM.
On the same count and under the same terms, as for `Cc1cc(C(=O)N2CCC3(CC2)CC(=O)c2nn(C(C)C)cc2O3)cc2[nH]cnc12` [3.007], the figure is 24 nM; as for `Cc1cc(C(=O)N2CCC3(CC2)CC(=O)c2nn(C(C)(C)C)cc2O3)cc2[nH]cnc12` [3.008], 6 nM.
Same read-out and setting: as for `Cc1cc(C(=O)N2CCC3(CC2)CC(=O)c2nn(C(C)C)cc2O3)cc2c1ncn2C` [3.009], the figure is 22 nM; as for `CC(C)(C)n1cc2c(n1)C(=O)CC1(CCN(C(=O)c3ccc4nc[nH]c4c3)CC1)O2` [3.010], 12 nM; as for `Cc1nc2ccc(C(=O)N3CCC4(CC3)CC(=O)c3nn(C(C)(C)C)cc3O4)cc2[nH]1` [3.011], 15 nM.
On the same count and under the same terms, in the case of `Cc1nc2ccc(C(=O)N3CCC4(CC3)CC(=O)c3nn(C(C)C)cc3O4)cc2[nH]1` [3.012] it was 129 nM; in that of `CCn1nc2c(c1C)OC1(CCN(C(=O)c3ccc4nc(C)[nH]c4c3)CC1)CC2=O` [3.013], 211 nM; in that of `Cn1cnc2ccc(C(=O)N3CCC4(CC3)CC(=O)c3nn(C(C)(C)C)cc3O4)cc21` [3.014], 21 nM.
Take `CC(C)n1cc2c(n1)C(=O)CC1(CCN(C(=O)c3ccc4ncn(C)c4c3)CC1)O2` [3.015]: under setting [1], the IC50 was 153 nM.
Same read-out and setting: in the case of `CCn1nc2c(c1C)OC1(CCN(C(=O)c3ccc4ncn(C)c4c3)CC1)CC2=O` [3.016] it was 271 nM; in that of `Cc1cc(C(=O)N2CCC3(CC2)CC(=O)c2nn(C(C)C)c(C)c2O3)cc2[nH]cnc12` [3.017], 14 nM; in that of `CCn1nc2c(c1C)OC1(CCN(C(=O)c3cc(F)c4nc(C)[nH]c4c3)CC1)CC2=O` [3.018], 105 nM.
On the same count and under the same terms, as for `Cc1nc2c(F)cc(C(=O)N3CCC4(CC3)CC(=O)c3nn(C(C)(C)C)cc3O4)cc2[nH]1` [3.019], the figure is 17 nM.
For the compound `CCn1nc2c(c1C)OC1(CCN(C(=O)c3cc(F)c4nc[nH]c4c3)CC1)CC2=O` [3.020], the IC50 under setting [1] was 139 nM.
Same read-out and setting: in the case of `CC(C)n1cc2c(n1)C(=O)CC1(CCN(C(=O)c3cc(F)c4nc[nH]c4c3)CC1)O2` [3.021] it was 39 nM; in that of `CC(C)(C)n1cc2c(n1)C(=O)CC1(CCN(C(=O)c3cc(F)c4nc[nH]c4c3)CC1)O2` [3.022], 14 nM; in that of `Cc1cc(C(=O)N2CCC3(CC2)CC(=O)c2nn(C(C)(C)C)cc2O3)cc2c1ncn2C` [3.023], 15 nM.
Same read-out and setting: in the case of `Cc1nc2c(F)cc(C(=O)N3CCC4(CC3)CC(=O)c3nn(C(C)C)cc3O4)cc2[nH]1` [3.024] it was 70 nM; in that of `CCn1nc2c(c1C)OC1(CCN(C(=O)c3cc(C)c4ncn(C)c4c3)CC1)CC2=O` [3.025], 49 nM; in that of `CCn1nc2c(c1C)OC1(CCN(C(=O)c3ccc4nc[nH]c4c3)CC1)CC2=O` [3.026], 168 nM.
For `Cc1nc2ccc(C(=O)N3CCC4(CC3)CC(=O)c3nn(C(C)(C)C)cc3O4)cc2n1C` [3.027], the concentration for half-maximal inhibition (IC50) under setting [1] was determined as 42 nM.
On the same count and under the same terms, in the case of `CC(C)n1cc2c(n1)C(=O)CC1(CCN(C(=O)c3ccc4cn(C)nc4c3)CC1)O2` [5.001] it was 675 nM; in that of `CCn1nc2c(c1C)OC1(CCN(C(=O)c3ccc4ccc(OC)cc4c3)CC1)CC2=O` [6.001], 13 nM; in that of `COc1ccc2ccc(C(=O)N3CCC4(CC3)CC(=O)c3nn(C(C)(C)C)cc3O4)cc2c1` [6.003], 2 nM.
The same measure, in the same setting: in the case of `Cc1ccc2cc(C(=O)N3CCC4(CC3)CC(=O)c3nn(C(C)(C)C)cc3O4)ccc2c1` [6.005] it was 48 nM; in that of `COc1cccc2cc(C(=O)N3CCC4(CC3)CC(=O)c3nn(C(C)(C)C)cc3O4)ccc12` [6.006], 7 nM; in that of `CCn1nc2c(c1C)OC1(CCN(C(=O)c3ccc4ccccc4c3)CC1)CC2=O` [6.007], 40 nM.
Same read-out and setting: in the case of `CC(C)n1cc2c(n1)C(=O)CC1(CCN(C(=O)c3ccc4snc(N)c4c3)CC1)O2` [7.001] it was 16 nM; in that of `CC(C)(C)n1cc2c(n1)C(=O)CC1(CCN(C(=O)c3ccc4snc(N)c4c3)CC1)O2` [7.002], 3 nM; in that of `CCn1nc2c(c1C)OC1(CCN(C(=O)c3ccc4snc(N)c4c3)CC1)CC2=O` [7.003], 19 nM.
As to `CC(C)(C)n1cc2c(n1)C(=O)CC1(CCN(C(=O)c3ccc4sncc4c3)CC1)O2` [7.004], the IC50 under setting [1] is 23 nM.
Still for that read-out and setting: as for `CCn1nc2c(c1C)OC1(CCN(C(=O)c3ccc4sncc4c3)CC1)CC2=O` [7.005], the figure is 36 nM.
Same read-out and setting: as for `CC(C)n1cc2c(n1)C(=O)CC1(CCN(C(=O)c3ccc4sncc4c3)CC1)O2` [7.006], the figure is 92 nM; as for `Cc1cc(C(=O)N2CCC3(CC2)CC(=O)c2nn(C(C)(C)C)cc2O3)cc2cnsc12` [7.007], 5 nM; as for `CCn1nc2c(c1C)OC1(CCN(C(=O)c3cc(C)c4sncc4c3)CC1)CC2=O` [7.008], 93 nM.
Same read-out and setting: as for `Cc1cc(C(=O)N2CCC3(CC2)CC(=O)c2nn(C(C)C)cc2O3)cc2cnsc12` [7.009], the figure is 18 nM.
Consider `Cc1cc(C(=O)N2CCC3(CC2)CC(=O)c2nn(C(C)(C)C)cc2O3)cc2ncn(C)c12` [8.001], for which the IC50 under setting [1] amounted to 36 nM.
The same measure, in the same setting: in the case of `Cc1cc(C(=O)N2CCC3(CC2)CC(=O)c2nn(C(C)C)cc2O3)cc2ncn(C)c12` [8.002] it was 59 nM.
The same measure, in the same setting: in the case of `CCn1nc2c(c1C)OC1(CCN(C(=O)c3cc(C)c4c(c3)ncn4C)CC1)CC2=O` [8.003] it was 87 nM; in that of `CCn1nc2c(c1C)OC1(CCN(C(=O)c3ccc4c(c3)nc(C)n4CC)CC1)CC2=O` [8.004], 481 nM; in that of `CCn1nc2c(c1C)OC1(CCN(C(=O)c3ccc4c(c3)ncn4C)CC1)CC2=O` [8.005], 159 nM.
In the case of `CCn1nc2c(c1C)OC1(CCN(C(=O)c3ccc4c(c3)nc(C)n4C)CC1)CC2=O` [8.006], the IC50 under setting [1] stood at 266 nM.
As to `Cn1cnc2cc(C(=O)N3CCC4(CC3)CC(=O)c3nn(C(C)(C)C)cc3O4)ccc21` [8.007], under setting [1], the IC50 was found to be 58 nM.
Turning to `CCn1c(C)nc2cc(C(=O)N3CCC4(CC3)CC(=O)c3nn(C(C)(C)C)cc3O4)ccc21` [8.008], the IC50 under setting [1] turned out to be 52 nM.
Still for that read-out and setting: in the case of `Cc1nc2cc(C(=O)N3CCC4(CC3)CC(=O)c3nn(C(C)(C)C)cc3O4)ccc2n1C` [8.009] it was 47 nM; in that of `Cn1c(O)nc2cc(C(=O)N3CCC4(CC3)CC(=O)c3nn(C(C)(C)C)cc3O4)ccc21` [8.010], 18 nM.
In the case of `CCn1nc2c(c1C)OC1(CCN(C(=O)c3ccc4c(c3)nc(O)n4C)CC1)CC2=O` [8.011], the IC50 under setting [1] is 186 nM.
The same measure, in the same setting: as for `CC(C)n1cc2c(n1)C(=O)CC1(CCN(C(=O)c3ccc4ocnc4c3)CC1)O2` [9.001], the figure is 300 nM; as for `CC(C)(C)n1cc2c(n1)C(=O)CC1(CCN(C(=O)c3ccc4ocnc4c3)CC1)O2` [9.002], 291 nM.
The same measure, in the same setting: in the case of `COc1cc(C(=O)N2CCC3(CC2)CC(=O)c2nn(C(C)(C)C)cc2O3)cc2nc(C)oc12` [9.003] it was 29 nM; in that of `COc1cc(C(=O)N2CCC3(CC2)CC(=O)c2nn(C(C)C)cc2O3)cc2nc(C)oc12` [9.004], 83 nM.
Take `CCn1nc2c(c1C)OC1(CCN(C(=O)c3cc(OC)c4oc(C)nc4c3)CC1)CC2=O` [9.005]: the IC50 under setting [1] came out at 179 nM.
Turning to `CCn1nc2c(c1C)OC1(CCN(C(=O)c3ccc4ncsc4c3)CC1)CC2=O` [10.001], under setting [1], the concentration for half-maximal inhibition (IC50) amounted to 285 nM.
Still for that read-out and setting: in the case of `CCn1nc2c(c1C)OC1(CCN(C(=O)c3cc(C)c4[nH]c(=O)ccc4c3)CC1)CC2=O` [11.001] it was 33 nM; in that of `Cc1cc(C(=O)N2CCC3(CC2)CC(=O)c2nn(C(C)(C)C)cc2O3)cc2ccc(=O)[nH]c12` [11.002], 11 nM.
Still for that read-out and setting: as for `CCn1nc2c(c1C)OC1(CCN(C(=O)c3ccc4c(c3)N(C)C(=O)CC4)CC1)CC2=O` [12.001], the figure is 299 nM; as for `CCn1nc2c(c1C)OC1(CCN(C(=O)c3ccc4c(c3)NC(=O)CC4)CC1)CC2=O` [12.002], 36 nM.
Consider `CN1C(=O)CCc2ccc(C(=O)N3CCC4(CC3)CC(=O)c3nn(C(C)(C)C)cc3O4)cc21` [12.003], for which the IC50 under setting [1] stood at 52 nM.
Same read-out and setting: in the case of `CC(C)(C)n1cc2c(n1)C(=O)CC1(CCN(C(=O)c3ccc4c(c3)NC(=O)CC4)CC1)O2` [12.004] it was 14 nM; in that of `CC(C)(C)n1cc2c(n1)C(=O)CC1(CCN(C(=O)c3ccc4c(c3)NC(=O)CO4)CC1)O2` [12.005], 45 nM; in that of `CCn1nc2c(c1C)OC1(CCN(C(=O)c3ccc4c(c3)CCC(=O)N4)CC1)CC2=O` [13.001], 421 nM.
The same measure, in the same setting: as for `CCn1nc2c(c1C)OC1(CCN(C(=O)c3ccc4c(c3)OCC(=O)N4)CC1)CC2=O` [13.002], the figure is 861 nM; as for `CC(C)(C)n1cc2c(n1)C(=O)CC1(CCN(C(=O)c3ccc4c(c3)OCC(=O)N4)CC1)O2` [13.003], 49 nM.
Same read-out and setting: as for `CC(C)(C)n1cc2c(n1)C(=O)CC1(CCN(C(=O)c3ccc4c(c3)CCC(=O)N4)CC1)O2` [13.004], the figure is 33 nM; as for `Cc1nc2cc(C(=O)N3CCC4(CC3)CC(=O)c3nn(C(C)(C)C)cc3O4)ccc2s1` [14.001], 7 nM; as for `CCn1nc2c(c1C)OC1(CCN(C(=O)c3ccc4sc(C)nc4c3)CC1)CC2=O` [14.002], 176 nM.
Take `Cc1ccc2cc(C(=O)N3CCC4(CC3)CC(=O)c3nn(C(C)(C)C)cc3O4)ccc2n1` [15.001]: under setting [1], the IC50 stood at 26 nM.
